# In patent publication US11117888B2, “Irreversible inhibitors of pyruvate kinase M2 and the use thereof” (China Medical University, priority 2020, dated 2021):
# Experiments:
# PKM2 [1] = target: T1, PKM2 (Homo sapiens, UniProt P14618); assay: Gel-based ABPP competition for PKM2 binding in PC-9 cells; set-up: PC-9 cells were pre-incubated with 1 μM compound 1 for 1 hour, and treated with compound 2; endogenous in cells; host or cells: PC-9 cells; conditions: 1 μM compound 1, 1 hour, Western blot
# T1 sequence (P14618 whole entry): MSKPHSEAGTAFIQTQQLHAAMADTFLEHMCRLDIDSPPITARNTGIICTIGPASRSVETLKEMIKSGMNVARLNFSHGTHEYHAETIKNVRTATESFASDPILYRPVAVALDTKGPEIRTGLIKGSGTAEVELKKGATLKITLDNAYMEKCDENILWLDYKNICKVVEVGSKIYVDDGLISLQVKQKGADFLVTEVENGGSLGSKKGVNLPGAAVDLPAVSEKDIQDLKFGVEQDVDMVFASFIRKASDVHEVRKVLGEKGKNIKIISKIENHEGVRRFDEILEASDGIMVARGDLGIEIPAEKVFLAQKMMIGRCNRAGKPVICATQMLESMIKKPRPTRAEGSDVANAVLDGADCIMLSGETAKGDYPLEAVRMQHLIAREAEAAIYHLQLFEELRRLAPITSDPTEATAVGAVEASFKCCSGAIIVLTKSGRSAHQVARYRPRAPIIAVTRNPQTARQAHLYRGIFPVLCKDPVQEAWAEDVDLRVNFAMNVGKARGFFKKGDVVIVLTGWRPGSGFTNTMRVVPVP
# Method: (§1) As this cell-based kinase assay could not rule out the involvement of PKM1, we examined the abilities of compound 1 to inhibit the kinase activity of recombinant PKM2 (SAE0021, Sigma-Aldrich) versus recombinant PKM1 (SRP0415, Sigma-Aldrich) using a commercial PKM assay kit. […] In brief, PC-9 cells were exposed to different concentrations of compound 2 in the presence of compound 1 (1 μM) for 1 hour, lysed, and the cell lysates were treated with biotin-azide, followed by streptavidin bead pulldown under the aforementioned conditions. […] The antigen of compound 1 was prepared by coupling this small molecule with cysteine residues of ovalbumin, which was then used for immunization in guinea pigs.
# Gel-based ABPP. PC-9 cells (2×10^6) were seeded in DMEM growth medium in 10-cm plates. After overnight incubation, the growth medium was replaced with fresh medium, followed by the addition of 1 μM compound 1 or DMSO control. After 1 hour, the ABPP probe compound 2 at 0.5, 1 and 2 μM was then added, and incubated at 37° C. for an additional 1 hour. The cell lysates were subjected to copper-catalyzed Click reaction, and biotin-tagged proteins were treated with 50 μL of streptavidin-coupled magnetic beads for 16 hours at 4° C. After incubation, cell lysates were washed by PBS containing 0.5% SDS three times to remove nonspecific binding. […]
# H1650 lung cancer cells = assay: MTT cell viability assay, H1650; format: cell-based; conditions: Homo sapiens, NCI-H1650, H1650 (mutant EGFR), 24 hours
# Description: (§2) Cell lines, cell culture, biochemical reagents, and antibodies. MiaPaCa-2, AsPC-1, and Panc-1 human pancreatic cancer cells, MCF-7 and MDA-MB-231 breast cancer cells, SCC4 and SCC2059 oral cancer cells, PC-3 and LNCaP prostate cancer cells, H157, H460, H1975, PC-9 and H1650 lung cancer cells were obtained from the American Type Culture Collection (ATCC, Manassas, Va.). All these cells were maintained in recommended growth medium (RPMI 1640 or DMEM) supplemented with 10% fetal bovine serum (FBS) (Invitrogen, Carlsbad, Calif., USA) and antibiotics at 37° C. in a humidified incubator containing 5% CO2. For SILAC experiments, PC-9 cells were grown in SILAC DMEM medium (Thermo Fisher) supplemented with 10% dialyzed FBS and 100 μg/mL each of unlabeled L-arginine and L-lysine (light medium) or ^13C/^15N stable isotope-labeled L-arginine and L-lysine (heavy medium). […]
# (§3) Cell viability assays. Drug effects on cell viability was assessed by 3-(4,5-dimethylthiazol-2-yl)-2,5-diphenyltetrazolium bromide ([…]) assays. […] The medium was then removed from each well and replaced with DMSO to dissolve the reduced MTT dye for subsequent colorimetric measurement of absorbance at 560 nm. Cell viabilities are expressed as percentages of viable cells relative to the corresponding vehicle-treated control group.
# PKM2 [2] = target: T1, PKM2; assay: Covalent adduct formation with recombinant PKM2 (anti-compound 1 antibodies, nanoLC-MS/MS site mapping); format: binding; set-up: made in house
# Method: as §1
# Preparation of anti-compound 1 antiserum. compound 1 was coupled to the cysteine thiolate in ovalbumin (OVA) via the propiolyl moiety under alkaline conditions by using the modifications to a published method. […]
# As PKM2 has a total of 10 cysteine residues (NCBI reference sequence: NM_002654), we conducted proteomic analysis to identify which cysteine residues were covalently modified by compound 1. […] In general, the modification site assignment was considered reliable if the b and y ions flanking the implicated site could be detected, with mass shifts corresponding to a compound 1-modified cysteine (+516.1773 Da). […]
# [3] = test system: LNCaP prostate cancer cells; assay: MTT cell viability assay, LNCaP; format: cell-based; conditions: Homo sapiens, 24 hours
# Description: as §2, §3
smiles,measurement,setting,value
"C#CC(=O)Nc1ccc(-n2nc(CCC(=O)NC)cc2-c2ccc(-c3ccc(C(F)(F)F)cc3)cc2)cc1 [compound 1, N-(4-(3-(3-(Methylamino)-3-oxopropyl)-5-(4′-(trifluoromethyl)-[1,1′-biphenyl]-4-yl)-1H-pyrazol-1-yl)phenyl)propiolamide]",competition with ABPP probe compound 2 for PKM2 binding,PKM2 [1],binding of the ABPP probe to PKM2 was attenuated
same,IC50,H1650 lung cancer cells,200 nM
same,covalent adduct with recombinant PKM2 (anti-compound 1 antibodies),"PKM2 [2]; Western blot, 4° C. for 6 hours",antibodies cross reacted with compound 1-treated PKM2
same,cysteine residues of PKM2 covalently modified,"PKM2 [2]; tryptic digestion, nanoLC-MS/MS",covalently coupled to the two cysteine residues Cys317 and Cys326
same,IC50,[3],> 2000 nM
